Experimental data from publication PMC6547740, “Potent and specific MTH1 inhibitors targeting gastric cancer” (Cell Death & Disease, 2019).

Legend:
[1] = tested on: MGC-803 cells; assay: Alkaline comet assay, MGC-803; type: cell-based, human; settings: MGC-803, 10 µM, 48 h, compared with DMSO
Method: MGC-803 and HGC-27 cells were seeded into 6-well plates(1.5 × 10^5 cells/well) and cultured overnight. For siRNA experiments, the control siRNA and MTH1 siRNA were transfected into cells. For compounds experiments, cells were treated with candidate compounds MI-743 for 48 h before collection. For the H2O2 control, cells were treated with 100 µM H2O2 for 10 min. Subsequently, cells were harvested, washed and resuspended with PBS. After counting, cells were mixed with 1.2% low melting-temperature agarose at 37 °C. The mixtures were layered onto pre-warmed glass slides, which were pre-coated with 1% agarose. After adding coverslips, slides were kept in 4 °C immediately for 10-15 min, followed by immersing in pre-chilled lysis buffer(2.5 M NaCl, 0.1 M EDTA, 10 mM Tris-HCL pH 7.7, 1% Triton X-100, 1% DMSO)for 5-8 h. Then, slides were washed three times with enzyme reaction buffer (40 mM HEPES pH 8.0, 0.1 M KCl, 0.5 mM EDTA and 0.2 mg/mL BSA) and incubated for another 45 min in pre-chilled alkaline electrophoresis buffer (50 mM NaOH, 1 mM EDTA, 1% DMSO, pH12.8). After electrophoresis for 30 min at 25 V, slides were neutralized with 0.4 M Tris-HCl pH 7.0 for 1 h and stained with 1‰ EB for 5 min. At last, images were acquired using fluorescence microscope and analysised by CometScore software.

[2] = target: T1, MTH2 (Homo sapiens, UniProt Q9NV35); assay: Cellular thermal shift assay (CETSA), MTH2; type: binding; settings: MGC-803 cells, 50 µM compound, heated 10 min from 43 to 61 °C
T1 construct: endogenous in cells; host or cells: MGC-803 (human gastric cancer cell line)
Method: Cellular thermal shift assay (CETSA), also known as the target engagement assay was one-way to detect the intracellular interaction ability of compounds with its specific target. Firstly, cells were seeded into T75 culture flasks and cultured overnight. Then, the cells were treated with cell media containing 1‰ DMSO as blank control and candidate compounds for 3–5 h. Next, the cells were collected by centrifugation and resuspended by PBS, then the cells were aliquoted into 7 PCR tubes and heated using PCR instrument for 10 min from 43 to 61 °C. After that, cells were lysed using liquid nitrogen and three repeated cycles of freeze-thawing. Then, samples were centrifuged at 12,000 × g for 20 min at 4 °C. Supernatants were denatured at 100 °C for 10 min and kept at −20 °C until Western Blot analysis.

[3] = tested on: L02 cells; assay: MTT cell viability, L02; type: cell-based; settings: Homo sapiens, normal liver cell line, 72 h
Method: (§1) The cell viability was determined by 3-(4,5-dimethylthiazol-2-yl)-2,5-diphenyltetrazolium bromide (MTT) assay, according to the manufacturer’s instructions. 1 day before treatment, cells were seeded into 96-well plates at a concentration of 2–5 × 10^3 cells per well, followed by treatment with fresh medium containing serial dilutions of candidate compounds for 48 or 72 h, 20 μL of MTT solution (5 mg/mL in PBS) was then added to each well. After treatment, the plates were incubated at 37 °C for another 4 h. Subsequently, the MTT solution was removed and 150 μL of DMSO was added to each well for 10 min, and then the plates were shaken to dissolve the dark blue crystal (formazan), the absorbance was detected at 570 nm using a BioTek microplate reader. The data were analyzed using SPSS 20 software.

[4] = tested on: GES-1 cells; assay: MTT cell viability, GES-1; type: cell-based; settings: Homo sapiens, GES1, normal gastric epithelial cell line, 72 h
Method: as §1

[5] = tested on: MGC-803 cells-derived xenograft; assay: MGC-803 cells-derived xenograft model; type: in vivo, BALB/c nude mice; set-up: average tumor volumes in comparison with oil treatment group: scale not given here; settings: 40 mg/kg, gavage once a day for 25 days
Method: All animal experiments were conducted according to the guidelines of the Institutional Animal Care and Use Committee of Zhengzhou University. Four or five-week-old female BALB/c nude mice, weighing 18–21 g were purchased from Hunan Slack Scene of Laboratory Animal Company, LTD (Hunan, China). They received abundant food and water and were housed in a laminar flow under sterilized condition. 200 µL MGC-803 cells at the concentration of 5 × 10^7/mL were injected into the right scapular region of the mice. When most of the tumor volumes reached 100 mm^3, mice were randomly divided into oil (solvent) group and MI-743(40 mg/kg) treatment group. Then, they received gavage daily for 25 days. The body weight was weighed every 2 days and the tumor volumes were measured every 4 days. At the 25th day, the tumors were surgically removed and weighed. The tumor size was determined by vernier caliper measurements and the tumor and major organs were fixed in 4% buffered paraformaldehyde and paraffin-embedded for hematoxylin and eosin (HE) staining, immunohistochemistry (IHC) and TUNEL assay.

[6] = tested on: MGC-803 cells; assay: MTT cell viability, MGC-803; type: cell-based; settings: Homo sapiens, gastric cancer cell line, 72 h
Method: as §1

[7] = tested on: pc9 cells; assay: MTT cell viability, pc9; type: cell-based; settings: Homo sapiens, PC-9, 72 h
Method: as §1

[8] = tested on: MGC-803 cells; assay: 8-oxo-dG assay (Cy3-conjugated avidin), MGC-803; type: cell-based, human; settings: MGC-803, 5 µM, 48 h, compared with DMSO
Method: (§2) Intracellular 8-oxo-dG levels were measured by staining with Cy3-conjugated avidin[65]. Cells were seeded on coverslips in 24-well plates (1–1.5 × 10^4 cells/well) overnight, and then transfected with candidate compounds. After 48 h, the cells were fixed with ice-cold methanol in Tris-buffered saline (TBS) for 15 min and blocked, using TBS with 0.1% Triton X-100 and 15% fetal bovine serum for 1 h. Then, the cells were stained with Cy3-conjugated avidin (0.5 µg/mL) for 1 h at room temperature. DNA was counterstained with 4,6-diamidino-2-phenylindole(DAPI). Images were acquired in a Nikon Eclipse TE 2000-S fluorescence microscope.

[9] = tested on: EC109 cells; assay: MTT cell viability, EC109; type: cell-based; settings: Homo sapiens, ECa-109, esophageal cancer cell line, 72 h
Method: as §1

[10] = tested on: KYSE-450 cells; assay: MTT cell viability, KYSE-450; type: cell-based; settings: Homo sapiens, esophageal cancer cell line, 72 h
Method: as §1

[11] = tested on: Het-1A cells; assay: MTT cell viability, Het-1A; type: cell-based; settings: Homo sapiens, normal esophageal epithelial cell line, 72 h
Method: as §1

[12] = tested on: HepG2 cells; assay: MTT cell viability, HepG2; type: cell-based; settings: Homo sapiens, liver cancer cell line, 72 h
Method: as §1

[13] = tested on: HGC-27 cells; assay: 8-oxo-dG assay (Cy3-conjugated avidin), HGC-27; type: cell-based, human; settings: HGC-27, 5 µM, 48 h, compared with DMSO
Method: as §2

[14] = tested on: B16-F10 cells; assay: MTT cell viability, B16-F10; type: cell-based; settings: Mus musculus, 72 h
Method: as §1

T1 sequence (Q9NV35 whole entry): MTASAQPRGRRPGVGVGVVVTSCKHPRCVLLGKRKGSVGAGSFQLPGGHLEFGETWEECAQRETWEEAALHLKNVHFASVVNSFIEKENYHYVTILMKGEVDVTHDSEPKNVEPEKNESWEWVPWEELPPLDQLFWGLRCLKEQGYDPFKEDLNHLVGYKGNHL

- temperature at which MTH2 became unstable [2]: 49 °C
- IC50 [6]: 2.91 ± 0.46 µM
- IC50 [7]: 9.53 ± 0.98 µM
- IC50 [12]: 6.73 ± 0.83 µM
- IC50 [14]: 8.08 ± 0.91 µM
Structure (SMILES): C#CCSc1nc(NNC(N)=S)c(C#N)c(-c2ccc3oc(=O)ccc3c2)n1 [MI-743, 2-(5-cyano-6-(2-oxo-2H-chromen-6-yl)-2-(prop-2-yn-1-ylthio)pyrimidin-4-yl)hydrazine-1-carbothioamide]
- comet tail moment [1]: significantly elevated
- IC50 [3]: 17.3 ± 1.23 µM
- IC50 [4]: 25.5 ± 1.02 µM
- average tumor volumes in comparison with oil treatment group [5]: 33.54%
- expression levels of ATMpS1981 and 8-oxo-dG in tumor tissue (immunohistochemistry) ([5]; vs oil group): sharply increased
- levels of 8-oxo-dG [8]: sharply increased
- IC50 [9]: 6.99 ± 0.84 µM
- IC50 [10]: 6.69 ± 0.82 µM
- IC50 [11]: 19.2 ± 1.89 µM
- levels of 8-oxo-dG [13]: sharply increased
